Target: phosphorylated active hERK2 enzyme (Homo sapiens (Human), UniProt P28482)
Assay: Active Human ERK2 (hERK2) Activity Assay (IMAP-FP)
Format: biochemical
Settings: Table 6, 0.5 nM hERK2, 30 μM ATP, 10 point titration, read-out: AERK2 IC50
Outline: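 IMAP fluorescence-polarization kinase assay: 0.5 nM activated hERK2 with 900 nM unlabeled plus 80 nM labeled peptide and 30 μM ATP, reacted 60 min. Quenched with IMAP beads in binding buffer with 24 mM NaCl; FP read after 60 min equilibration.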

phosphorylated active hERK2 enzyme, sequence (P28482 whole entry): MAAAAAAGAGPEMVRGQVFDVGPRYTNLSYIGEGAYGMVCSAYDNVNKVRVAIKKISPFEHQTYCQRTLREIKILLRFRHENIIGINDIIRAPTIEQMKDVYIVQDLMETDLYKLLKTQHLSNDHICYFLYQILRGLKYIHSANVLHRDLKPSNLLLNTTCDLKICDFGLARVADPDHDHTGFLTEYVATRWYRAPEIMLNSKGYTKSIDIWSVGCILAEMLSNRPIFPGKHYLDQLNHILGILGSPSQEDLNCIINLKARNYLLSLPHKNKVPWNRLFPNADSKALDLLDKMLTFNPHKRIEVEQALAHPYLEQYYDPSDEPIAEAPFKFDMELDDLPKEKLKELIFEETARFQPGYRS

Row | IC50 [nM] | Structure (SMILES)
1 | 1 | COC[C@@H](NC(=O)Nc1cc2[nH]nc(N3CCC(OC)CC3)c2cn1)c1ccccc1 [Example 415, 1-[(1S)-2-methoxy-1-phenylethyl]-3-[3-(4-methoxypiperidin-1-yl)-1H-pyrazolo[4,3-c]pyridin-6-yl]urea]
2 | 483 | CO[C@@H]1CCC[C@H]1NC(=O)Nc1cc2[nH]nc(N)c2cn1 [Example 416, 1-(3-amino-1H-pyrazolo[4,3-c]pyridin-6-yl)-3-[(1R,2R)-2-methoxy-cyclopentyl]urea]
3 | 0.6 | COC[C@@H](NC(=O)Nc1cc2[nH]nc(NC(C)C(F)(F)F)c2cn1)c1ccccc1 (stereo partly drawn) [Example 417, 1-[(1S)-2-methoxy-1-phenylethyl]-3-{3-[(2,2,2-trifluoro-1-methylethyl)-amino]-1H-pyrazolo[4,3-c]-pyridin-6-yl}urea]
4 | 3.2 | CC(Nc1n[nH]c2cc(NC(=O)N[C@H](C)c3ccccc3)ncc12)C(F)(F)F (stereo partly drawn) [Example 418, 1-[(1R)-1-phenylethyl]-3-{3-[(2,2,2-trifluoro-1-methylethyl)amino]-1H-pyrazolo[4,3-c]pyridin-6-yl}urea]
5 | 2.2 | CC(Nc1n[nH]c2cc(NC(=O)N[C@H](C)c3ccccc3)ncc12)C(F)(F)F (stereo partly drawn) [Example 419, 1-[(1R)-1-phenylethyl]-3-{3-[(2,2,2-trifluoro-1-methylethyl)amino]-1H-pyrazolo[4,3-c]pyridin-6-yl}urea]
6 | 2.1 | CCNc1n[nH]c2cc(NC(=O)N[C@@H](c3ccccc3)C(C)(C)O)ncc12 [Example 420, 1-[3-(ethylamino)-1H-pyrazolo[4,3-c]pyridin-6-yl]-3-[(1S)-2-hydroxy-2-methyl-1-phenylpropyl]urea]
7 | 0.6 | COC[C@@H](NC(=O)Nc1cc2[nH]nc(NC(C)C(F)(F)F)c2cn1)c1ccccc1 (stereo partly drawn) [Example 421, 1-[(1S)-2-methoxy-1-phenylethyl]-3-{3-[(2,2,2-trifluoro-1-methylethyl)-amino]-1H-pyrazolo[4,3-c]-pyridin-6-yl}urea]
8 | 0.8 | COC[C@@H](NC(=O)Nc1cc2[nH]nc(NC(C)C(F)(F)F)c2cn1)c1ccccc1 (stereo partly drawn) [Example 422, 1-[(1S)-2-methoxy-1-phenylethyl]-3-{3-[(2,2,2-trifluoro-1-methylethyl)-amino]-1H-pyrazolo[4,3-c]-pyridin-6-yl}urea]
9 | 9.7 | C[C@@H](NC(=O)Nc1cc2[nH]nc(N3CCC(C#N)CC3)c2cn1)c1ccccc1 [Example 423, 1-[3-(4-cyanopiperidin-1-yl)-1H-pyrazolo[4,3-c]-pyridin-6-yl]-3-[(1R)-1-phenylethyl]urea]
10 | 21.5 | C[C@@H](NC(=O)Nc1cc2[nH]nc(N3CCC(C)(O)CC3)c2cn1)c1ccccc1 [Example 424, 1-[3-(4-hydroxy-4-methylpiperidin-1-yl)-1H-pyrazolo[4,3-c]-pyridin-6-yl]-3-[(1R)-1-phenylethyl]urea]
11 | 14.9 | CC(C)(O)[C@@H](NC(=O)Nc1cc2[nH]nc(N)c2cn1)c1ccccc1 [Example 425, 1-(3-amino-1H-pyrazolo[4,3-c]-pyridin-6-yl)-3-[(1S)-2-hydroxy-2-methyl-1-phenylpropyl]urea]
12 | 1 | COC1CCN(c2n[nH]c3cc(NC(=O)N[C@H](COC(F)F)c4ccccc4)ncc23)CC1 [Example 426, 1-[(1S)-2-(difluoromethoxy)-1-phenylethyl]-3-[3-(4-methoxy-piperidin-1-yl)-1H-pyrazolo[4,3-c]-pyridin-6-yl]urea]
13 | 15.1 | CSC1CCN(c2n[nH]c3cc(NC(=O)N[C@H](C)c4ccccc4)ncc23)CC1 [Example 427, 1-{3-[4-(methylsulfanyl)-piperidin-1-yl]-1H-pyrazolo[4,3-c]-pyridin-6-yl}-3-[(1R)-1-phenylethyl]urea]
14 | 1.3 | CC(Nc1n[nH]c2cc(NC(=O)N[C@H](COC(F)F)c3ccccc3)ncc12)C(F)(F)F (stereo partly drawn) [Example 428, 1-[(1S)-2-(difluoromethoxy)-1-phenylethyl]-3-{3-[(2,2,2-trifluoro-1-methylethyl)-amino]-1H-pyrazolo[4,3-c]-pyridin-6-yl}urea]
15 | 1.1 | CCNc1n[nH]c2cc(NC(=O)NC(c3ccc(F)cc3)C(C)(C)O)ncc12 (stereo not shown) [Example 429, 1-[3-(ethylamino)-1H-pyrazolo[4,3-c]pyridin-6-yl]-3-[1-(4-fluorophenyl)-2-hydroxy-2-methylpropyl]urea]
16 | 0.6 | CCNc1n[nH]c2cc(NC(=O)NC(c3ccc(F)cc3)C(C)(C)OC)ncc12 (stereo not shown) [Example 430, 1-[3-(ethylamino)-1H-pyrazolo[4,3-c]pyridin-6-yl]-3-[1-(4-fluorophenyl)-2-methoxy-2-methylpropyl]urea]
17 | 0.5 | CCNc1n[nH]c2cc(NC(=O)N[C@@H](c3ccccc3)C(C)(C)OC)ncc12 [Example 431, 1-[3-(ethylamino)-1H-pyrazolo[4,3-c]pyridin-6-yl]-3-[(1S)-2-methoxy-2-methyl-1-phenylpropyl]urea]

Row | IC50 [nM] | Structure (SMILES)
18 | 2.4 | COC(C)(C)C(NC(=O)Nc1cc2[nH]nc(N3C[C@@H](C)O[C@@H](C)C3)c2cn1)c1ccc(F)cc1 (stereo partly drawn) [Example 432, 1-{3-[(2R,6S)-2,6-dimethylmorpholin-4-yl]-1H-pyrazolo[4,3-c]-pyridin-6-yl}-3-[1-(4-fluorophenyl)-2-methoxy-2-methylpropyl]urea]
19 | 0.5 | CC(C)(O)[C@@H](NC(=O)Nc1cc2[nH]nc(N3CCOCC3)c2cn1)c1ccccc1 [Example 433, 1-[(1S)-2-hydroxy-2-methyl-1-phenylpropyl]-3-(3-morpholin-4-yl-1H-pyrazolo[4,3-c]-pyridin-6-yl)urea]
20 | 0.7 | CC(Nc1n[nH]c2cc(NC(=O)N[C@@H](c3ccccc3)C(C)(C)O)ncc12)C(F)(F)F (stereo partly drawn) [Example 434, 1-[(1S)-2-hydroxy-2-methyl-1-phenylpropyl]-3-{3-[(2,2,2-trifluoro-1-methylethyl)-amino]-1H-pyrazolo[4,3-c]-pyridin-6-yl}urea]
21 | 1.6 | C[C@@H]1CN(c2n[nH]c3cc(NC(=O)NC(c4ccc(F)cc4)C(C)(C)O)ncc23)C[C@H](C)O1 (stereo partly drawn) [Example 435, 1-{3-[(2R,6S)-2,6-dimethylmorpholin-4-yl]-1H-pyrazolo[4,3-c]-pyridin-6-yl}-3-[1-(4-fluorophenyl)-2-hydroxy-2-methylpropyl]urea]
22 | 0.8 | C[C@@H]1CN(c2n[nH]c3cc(NC(=O)N[C@@H](c4ccccc4)C(C)(C)O)ncc23)C[C@H](C)O1 [Example 436, 1-{3-[(2R,6S)-2,6-dimethylmorpholin-4-yl]-1H-pyrazolo[4,3-c]-pyridin-6-yl}-3-[(1S)-2-hydroxy-2-methyl-1-phenylpropyl]urea]
23 | 0.4 | O=C(Nc1cc2[nH]nc(N3CCOCC3)c2cn1)N[C@H](CO)c1ccccc1 [Example 437, 1-[(1S)-2-hydroxy-1-phenylethyl]-3-(3-morpholin-4-yl-1H-pyrazolo[4,3-c]pyridin-6-yl)urea]
24 | 0.4 | CC(C)(O)[C@@H](NC(=O)Nc1cc2[nH]nc(N3CCOCC3)c2cn1)c1ccc(F)cc1 [Example 438, 1-[(1S)-1-(4-fluorophenyl)-2-hydroxy-2-methylpropyl]-3-(3-morpholin-4-yl-1H-pyrazolo[4,3-c]-pyridin-6-yl)urea]
25 | 1.9 | O=C(Nc1cc2[nH]nc(N3CC4CCC(C3)O4)c2cn1)N[C@H](CO)c1ccccc1 [Example 439, 1-[(1S)-2-hydroxy-1-phenylethyl]-3-[3-(8-oxa-3-azabicyclo[3.2.1]-oct-3-yl)-1H-pyrazolo[4,3-c]-pyridin-6-yl]urea]
26 | 0.4 | O=C(Nc1cc2[nH]nc(N3CCOCC3)c2cn1)N[C@H](COC(F)F)c1ccccc1 [Example 440, 1-[(1S)-2-(difluoromethoxy)-1-phenylethyl]-3-(3-morpholin-4-yl-1H-pyrazolo[4,3-c]pyridin-6-yl)urea]
27 | 0.9 | COC[C@@H](NC(=O)Nc1cc2[nH]nc(N3CC4CCC(C3)O4)c2cn1)c1ccccc1 [Example 441, 1-[(1S)-2-methoxy-1-phenylethyl]-3-[3-(8-oxa-3-azabicyclo[3.2.1]-oct-3-yl)-1H-pyrazolo[4,3-c]-pyridin-6-yl]urea]
28 | 0.5 | CC(C)(O)[C@@H](NC(=O)Nc1cc2[nH]nc(N3CC4CCC(C3)O4)c2cn1)c1ccccc1 [Example 442, 1-[(1S)-2-hydroxy-2-methyl-1-phenylpropyl]-3-[3-(8-oxa-3-azabicyclo[3.2.1]-oct-3-yl)-1H-pyrazolo[4,3-c]-pyridin-6-yl]urea]
29 | 0.7 | CC(C)(O)[C@@H](NC(=O)Nc1cc2[nH]nc(N)c2cn1)c1ccc(F)cc1 [Example 443, 1-(3-amino-1H-pyrazolo[4,3-c]-pyridin-6-yl)-3-[(1S)-1-(4-fluorophenyl)-2-hydroxy-2-methylpropyl]urea]
30 | 1.2 | C[C@@H](NC(=O)Nc1cc2[nH]nc(N)c2c(Cl)n1)c1ccccc1 [Example 444, 1-(3-amino-4-chloro-1H-pyrazolo[4,3-c]-pyridin-6-yl)-3-[(1R)-1-phenylethyl]urea]
31 | 0.8 | CC(C)(O)[C@@H](NC(=O)Nc1cc2[nH]nc(N3CC4CC3CO4)c2cn1)c1ccc(F)cc1 (stereo partly drawn) [Example 446, 1-[(1S)-1-(4-fluorophenyl)-2-hydroxy-2-methylpropyl]-3-[3-(2-oxa-5-azabicyclo[2.2.1]hept-5-yl)-1H-pyrazolo[4,3-c]pyridin-6-yl]urea]
32 | 1.5 | CC(C)(O)[C@@H](NC(=O)Nc1cc2[nH]nc(N3CC4CC3CO4)c2cn1)c1ccccc1 (stereo partly drawn) [Example 447, 1-[(1S)-2-hydroxy-2-methyl-1-phenylpropyl]-3-[3-(2-oxa-5-azabicyclo[2.2.1]-hept-5-yl)-1H-pyrazolo[4,3-c]-pyridin-6-yl]urea]
33 | 0.4 | CCNc1n[nH]c2cc(NC(=O)N[C@@H](c3ccc(F)cc3)C(C)(C)O)ncc12 [Example 448, 1-[3-(ethylamino)-1H-pyrazolo[4,3-c]pyridin-6-yl]-3-[(1S)-1-(4-fluorophenyl)-2-hydroxy-2-methylpropyl]urea]
34 | 6 | C[C@@H](NC(=O)Nc1cc2[nH]nc(N3CC4CC3CO4)c2cn1)c1ccccc1 (stereo partly drawn) [Example 449, 1-[3-(2-oxa-5-azabicyclo[2.2.1]-hept-5-yl)-1H-pyrazolo[4,3-c]-pyridin-6-yl]-3-[(1R)-1-phenylethyl]urea]

— patent US9233979B2, “Compounds that are ERK inhibitors” (Merck Sharp & Dohme Corp., priority 2012, dated 2016)
